SMILES strings stand for the structures. ≈ marks a conversion by molar mass, not a printed value.

Test [1] has as its system S. aureus (human isolate). Description: In vivo test in intraperitoneally infected mice (deaths). Conditions: groups of 5 Parks mice infected i.p. with 7.0 x 10^8 S. aureus, i.p. treatment 0.2 ml twice per day for 2 days (indium complex 4.6 mg/kg, metal-free compound 3.4 mg/kg per dose). How it is done:
(§1) The solutions for administration were prepared as follows: • (1) 2 equivalents of 5,7-dichloro-8-hydroxyquinoline were dissolved in a 15 mM solution of InCl3·3H2O in ethanol containing 1% v/v of glycerol. A 1.0 ml aliquot of this solution was dried in vacuo using a sterile universal container and the resultant residue was treated with 15 ml of sterile 0.15 M aqueous sodium chloride containing 1 % w/v of sodium bicarbonate and the solid dispersed by sonication. A 0.2 ml dose of the final preparation corresponds to a dose of 4.6 mg/kg in a 25 g mouse. • (2) 6.4 mg of 5,7-dichloro-8-hydroxyquinoline were moistened by the addition of 0.05 ml of dimethyl sulphoxide and to the moistened material was added 15 ml of sterile 0.15 M aqueous sodium chloride containing 1% w/v of sodium bicarbonate, the solid then being dispersed by sonication. A 0.2 ml dose of the final preparation corresponds to a dose of 3.4 mg/kg in a 25 g mouse.
(§2) Groups of 5 male or female Parks mice weighing from 23-25 g were infected by intraperitoneal injection of one of 8.0 x 10^6 E. coli, 3.5 x 10^5 K. pneumoniae and 7.0 x 10^8 S. aureus, the organisms in each case being suspended in 0.2 ml of 10% v/v trypticase soy broth in 0.15 M aqueous sodium chloride, three groups of mice being infected with each organism. For each organism, one of the three groups of infected mice was treated by intraperitoneal injection with 0.2 ml of a suspension of the indium complex whilst a second group was similarly treated with 0.2 ml of a supsension of the metal-free compound. The treatment was given twice per day for 1 day in the case of E. coli infection, twice per day for 4 days in the case of K. pneumoniae infection, and twice per day for 2 days in the case of the S. aureus infection. The third group of mice in each case received no treatment.

The subject of test [2] is K. pneumoniae. The test is described as above. Conditions: groups of 5 Parks mice infected i.p. with 3.5 x 10^5 K. pneumoniae, i.p. treatment 0.2 ml twice per day for 4 days (indium complex 4.6 mg/kg, metal-free compound 3.4 mg/kg per dose). How it is done:
as §1, §2

Test [3] concerns E. coli (108, co1V^+). The test is classed as in vivo. Conditions: groups of 5 Parks mice infected i.p. with 8.0 x 10^6 E. coli, i.p. treatment 0.2 ml twice per day for 1 day (indium complex 4.6 mg/kg, metal-free compound 3.4 mg/kg per dose). The method, then: as §1
Groups of 5 male or female Parks mice weighing from 23-25 g were infected by intraperitoneal injection of one of 8.0 x 10^6 E. coli, 3.5 x 10^5 K. pneumoniae and 7.0 x 10^8 S. aureus, the organisms in each case being suspended in 0.2 ml of 10% v/v trypticase soy broth in 0.15 M aqueous sodium chloride, three groups of mice being infected with each organism. […]

For test [4], the system named is Escherichia coli (018; co1V^+). Description: Minimal inhibitory concentration (MIC) in broth culture. The test is classed as cell-based. The following applies: trypticase soy broth with sodium bicarbonate, approx. 10^4 bacteria per ml, 18 hours at 37°C, 5% CO2 in air, lowest concentration with no visible growth, read-out: MIC Values E. coli. How it is done:
(§3) Experiments were carried out to find the minimal inhibitory concentrations (MIC) for solutions of various indium complexes against Staphylococcus aureus (human isolate), Escherichia coli (018; co1V^+) and Klebsiella pneumoniae and to compare these with the MIC values for the corresponding metal-free compounds. The complexes were prepared in solution as described in Example 1 except that in the case of the complex of 7-iodo-8-hydroxyquinoline 5-sulphonic acid, 5 molar equivalents of metal-free compound were reacted with the indium chloride trihydrate and the solution was prepared in water. The solutions of the metal-free compounds were prepared in the same solvent as used for the equivalent complex.
(§4) The culture medium used consisted of a 9:1 mixture of trypticase soy broth and 6% w/v aqueous sodium bicarbonate solution. The medium was bulk inoculated with approximately 10^4 test bacteria per ml and 5.0 ml aliquots were then dispensed into sterile 20 ml bottles to which 0.05 ml of the test solution had been added. The test solutions were obtained from the original solution of the indium complex or metal-free compound by dilution to give a suitable range of concentrations in µM. Control samples, to which either no test solution was added or to which the solvent of the test solution only was added, were also prepared.
(§5) For each compound tested the samples at the various concentrations were studied to determine the lowest concentration of the compound at which no growth could be seen. The MIC values thus obtained are shown in Table 1 where it will be seen that the values are in each case lower for the indium complex as compared with the metal-free compound.

The test system of test [5] is Klebsiella pneumoniae. Described as above. The following applies: trypticase soy broth with sodium bicarbonate, approx. 10^4 bacteria per ml, 18 hours at 37°C, 5% CO2 in air, lowest concentration with no visible growth, read-out: MIC Values K. pneumoniae. The test is classed as cell-based. How it is done: as §3, §4, §5
For test [6], the system named is Staphylococcus aureus (human isolate). The description is as above. The test is classed as cell-based. The following applies: trypticase soy broth with sodium bicarbonate, approx. 10^4 bacteria per ml, 18 hours at 37°C, 5% CO2 in air, lowest concentration with no visible growth, read-out: MIC Values S. aureus. The method, then: as §3, §4, §5

For the molecule `Oc1c(Cl)cc(Cl)c2cccnc12` [5,7-dichloro-8-hydroxyquinoline], the “Deaths at 7 days” value in test [1] is given as 4; in test [2], 5; in test [3], 5. Also, the Deaths % in test [1] (at 7 days) is reported as 80%; in test [2] (at 7 days), 100%; in test [3] (at 7 days), 100%. The MIC in test [4] was 100 µM (≈ 21.4 µg/mL); in test [5], 100 µM (≈ 21.4 µg/mL); in test [6], 6.3 µM (≈ 1.35 µg/mL).
Turning to `Oc1ccc(Cl)c2cccnc12` [5-Chloro-8-hydroxyquinoline], the MIC in test [4] is 38.5 µM (≈ 6.91 µg/mL); in test [5], 38.5 µM (≈ 6.91 µg/mL); in test [6] it was 18.8 µM (≈ 3.38 µg/mL).
As for `O=S(=O)(O)c1cc(I)c(O)c2ncccc12` [7-Iodo-8-hydroxyquinoline 5-sulphonic acid], the MIC in test [4], in test [5] and in test [6] was greater than 500 µM each time.
